# Source: the supplement of paper PMC8671470
# System: Mono-Mac-6
# Assay: cell viability (% survival relative to DMSO control, bortezomib = 0%); higher = less cytotoxic
# Settings: 1000 nM; 72 h
# Summary of the method: (§1)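 Fifteen myeloid leukaemia cell lines were exposed to compounds at 1, 10, 100, 1000 or 10000 nM in 384-well plates for 72 h at 37 °C and 5% CO2. Viability was read by CellTiter-Glo luminescence and normalised, with vehicle as 100% and a 10 µM positive control as 0%. Values are percent survival averaged over duplicates.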
row,SMILES,cell viability
1,Cn1cc(-c2ccncc2)c(-c2ccc(OCc3ccc4ccccc4n3)cc2)n1,90.5%
2,O=C(O)CC[N+](=O)[O-] [3-nitropropionic acid],97.4%
3,C=CC(=O)c1ccc(O)cc1 [4-Acryloylphenol],103%
4,Cc1[nH]nc(C(F)(F)F)c1Cc1sc2c(c1C(=O)N1C[C@](C)(O)CO1)c(=O)n(C)c(=O)n2C(C)C [AZD3965],84.9%
5,O=c1cc(-c2ccccc2)oc2c1ccc1ccccc12 [Alpha-Naphtoflavone],111%

# Same assay, conditions: 10000 nM; 72 h
row,SMILES,cell viability
1,CN(CCCOc1ccc(Cc2ccccc2)cc1)CCC(=O)O,89%
2,Cc1c2c(=O)n(-c3ccccc3Cl)[nH]c2cc(=O)n1Cc1ccccn1,99.5%
3,COc1ccc2c(NC(=O)Nc3cccc(C(F)(F)F)n3)ccnc2c1,97.1%
4,O=c1cc(N2CCOCC2)oc2c(-c3ccccc3)cccc12,40.7%
5,O=C1C(SCCO)=C(SCCO)C(=O)c2ccccc21,-0.648%
6,Cc1nc(-c2ccccc2)sc1C(=O)Nc1ccc(S(N)(=O)=O)cc1,108%
7,Cn1cc(-c2ccncc2)c(-c2ccc(OCc3ccc4ccccc4n3)cc2)n1,52.3%
8,O=C(O)CC[N+](=O)[O-] [3-nitropropionic acid],104%
9,C=CC(=O)c1ccc(O)cc1 [4-Acryloylphenol],54.6%
10,Cc1[nH]nc(C(F)(F)F)c1Cc1sc2c(c1C(=O)N1C[C@](C)(O)CO1)c(=O)n(C)c(=O)n2C(C)C [AZD3965],98.3%
11,O=c1cc(-c2ccccc2)oc2c1ccc1ccccc12 [Alpha-Naphtoflavone],113%

# System: SHI-1
# Assay: as above
# Settings: 1 nM; 72 h
# Summary of the method: as §1
row,SMILES,cell viability
1,CN(CCCOc1ccc(Cc2ccccc2)cc1)CCC(=O)O,106%
2,Cc1c2c(=O)n(-c3ccccc3Cl)[nH]c2cc(=O)n1Cc1ccccn1,84.3%
3,COc1ccc2c(NC(=O)Nc3cccc(C(F)(F)F)n3)ccnc2c1,93.6%
4,O=c1cc(N2CCOCC2)oc2c(-c3ccccc3)cccc12,123%
5,O=C1C(SCCO)=C(SCCO)C(=O)c2ccccc21,99.5%
6,Cc1nc(-c2ccccc2)sc1C(=O)Nc1ccc(S(N)(=O)=O)cc1,109%
7,Cn1cc(-c2ccncc2)c(-c2ccc(OCc3ccc4ccccc4n3)cc2)n1,99%
8,O=C(O)CC[N+](=O)[O-] [3-nitropropionic acid],90.7%
9,C=CC(=O)c1ccc(O)cc1 [4-Acryloylphenol],99.7%
10,Cc1[nH]nc(C(F)(F)F)c1Cc1sc2c(c1C(=O)N1C[C@](C)(O)CO1)c(=O)n(C)c(=O)n2C(C)C [AZD3965],103%
11,O=c1cc(-c2ccccc2)oc2c1ccc1ccccc12 [Alpha-Naphtoflavone],113%

# Same assay, conditions: 10 nM; 72 h
row,SMILES,cell viability
1,CN(CCCOc1ccc(Cc2ccccc2)cc1)CCC(=O)O,102%
2,Cc1c2c(=O)n(-c3ccccc3Cl)[nH]c2cc(=O)n1Cc1ccccn1,103%
3,COc1ccc2c(NC(=O)Nc3cccc(C(F)(F)F)n3)ccnc2c1,109%
4,O=c1cc(N2CCOCC2)oc2c(-c3ccccc3)cccc12,102%
5,O=C1C(SCCO)=C(SCCO)C(=O)c2ccccc21,103%
6,Cc1nc(-c2ccccc2)sc1C(=O)Nc1ccc(S(N)(=O)=O)cc1,106%
7,Cn1cc(-c2ccncc2)c(-c2ccc(OCc3ccc4ccccc4n3)cc2)n1,104%
8,O=C(O)CC[N+](=O)[O-] [3-nitropropionic acid],120%
9,C=CC(=O)c1ccc(O)cc1 [4-Acryloylphenol],92.7%
10,Cc1[nH]nc(C(F)(F)F)c1Cc1sc2c(c1C(=O)N1C[C@](C)(O)CO1)c(=O)n(C)c(=O)n2C(C)C [AZD3965],101%
11,O=c1cc(-c2ccccc2)oc2c1ccc1ccccc12 [Alpha-Naphtoflavone],99.2%

# Same assay, conditions: 100 nM; 72 h
row,SMILES,cell viability
1,CN(CCCOc1ccc(Cc2ccccc2)cc1)CCC(=O)O,116%
2,Cc1c2c(=O)n(-c3ccccc3Cl)[nH]c2cc(=O)n1Cc1ccccn1,95.7%
3,COc1ccc2c(NC(=O)Nc3cccc(C(F)(F)F)n3)ccnc2c1,104%
4,O=c1cc(N2CCOCC2)oc2c(-c3ccccc3)cccc12,106%
5,O=C1C(SCCO)=C(SCCO)C(=O)c2ccccc21,95.4%
6,Cc1nc(-c2ccccc2)sc1C(=O)Nc1ccc(S(N)(=O)=O)cc1,104%
7,Cn1cc(-c2ccncc2)c(-c2ccc(OCc3ccc4ccccc4n3)cc2)n1,107%
8,O=C(O)CC[N+](=O)[O-] [3-nitropropionic acid],97.5%
9,C=CC(=O)c1ccc(O)cc1 [4-Acryloylphenol],102%
10,Cc1[nH]nc(C(F)(F)F)c1Cc1sc2c(c1C(=O)N1C[C@](C)(O)CO1)c(=O)n(C)c(=O)n2C(C)C [AZD3965],109%
11,O=c1cc(-c2ccccc2)oc2c1ccc1ccccc12 [Alpha-Naphtoflavone],97.7%

# Same assay, conditions: 1000 nM; 72 h
row,SMILES,cell viability
1,CN(CCCOc1ccc(Cc2ccccc2)cc1)CCC(=O)O,115%
2,Cc1c2c(=O)n(-c3ccccc3Cl)[nH]c2cc(=O)n1Cc1ccccn1,80.8%
3,COc1ccc2c(NC(=O)Nc3cccc(C(F)(F)F)n3)ccnc2c1,110%
4,O=c1cc(N2CCOCC2)oc2c(-c3ccccc3)cccc12,92.8%
5,O=C1C(SCCO)=C(SCCO)C(=O)c2ccccc21,16.8%
6,Cc1nc(-c2ccccc2)sc1C(=O)Nc1ccc(S(N)(=O)=O)cc1,103%
7,Cn1cc(-c2ccncc2)c(-c2ccc(OCc3ccc4ccccc4n3)cc2)n1,104%
8,O=C(O)CC[N+](=O)[O-] [3-nitropropionic acid],92.9%
9,C=CC(=O)c1ccc(O)cc1 [4-Acryloylphenol],114%
10,Cc1[nH]nc(C(F)(F)F)c1Cc1sc2c(c1C(=O)N1C[C@](C)(O)CO1)c(=O)n(C)c(=O)n2C(C)C [AZD3965],101%
11,O=c1cc(-c2ccccc2)oc2c1ccc1ccccc12 [Alpha-Naphtoflavone],95.8%

# Same assay, conditions: 10000 nM; 72 h
row,SMILES,cell viability
1,CN(CCCOc1ccc(Cc2ccccc2)cc1)CCC(=O)O,110%
2,Cc1c2c(=O)n(-c3ccccc3Cl)[nH]c2cc(=O)n1Cc1ccccn1,75.9%
3,COc1ccc2c(NC(=O)Nc3cccc(C(F)(F)F)n3)ccnc2c1,85.4%
4,O=c1cc(N2CCOCC2)oc2c(-c3ccccc3)cccc12,30.7%
5,O=C1C(SCCO)=C(SCCO)C(=O)c2ccccc21,-0.637%
6,Cc1nc(-c2ccccc2)sc1C(=O)Nc1ccc(S(N)(=O)=O)cc1,111%
7,Cn1cc(-c2ccncc2)c(-c2ccc(OCc3ccc4ccccc4n3)cc2)n1,93.7%
8,O=C(O)CC[N+](=O)[O-] [3-nitropropionic acid],3.76%
9,C=CC(=O)c1ccc(O)cc1 [4-Acryloylphenol],103%
10,Cc1[nH]nc(C(F)(F)F)c1Cc1sc2c(c1C(=O)N1C[C@](C)(O)CO1)c(=O)n(C)c(=O)n2C(C)C [AZD3965],96.7%
11,O=c1cc(-c2ccccc2)oc2c1ccc1ccccc12 [Alpha-Naphtoflavone],96.8%

# System: THP-1
# Assay: as above
# Settings: 1 nM; 72 h
# Summary of the method: as §1
row,SMILES,cell viability
1,CN(CCCOc1ccc(Cc2ccccc2)cc1)CCC(=O)O,104%
2,Cc1c2c(=O)n(-c3ccccc3Cl)[nH]c2cc(=O)n1Cc1ccccn1,95.8%
3,COc1ccc2c(NC(=O)Nc3cccc(C(F)(F)F)n3)ccnc2c1,95.5%
4,O=c1cc(N2CCOCC2)oc2c(-c3ccccc3)cccc12,116%
5,O=C1C(SCCO)=C(SCCO)C(=O)c2ccccc21,100%
6,Cc1nc(-c2ccccc2)sc1C(=O)Nc1ccc(S(N)(=O)=O)cc1,107%
7,Cn1cc(-c2ccncc2)c(-c2ccc(OCc3ccc4ccccc4n3)cc2)n1,92.7%
8,O=C(O)CC[N+](=O)[O-] [3-nitropropionic acid],88.2%
9,C=CC(=O)c1ccc(O)cc1 [4-Acryloylphenol],89.8%
10,Cc1[nH]nc(C(F)(F)F)c1Cc1sc2c(c1C(=O)N1C[C@](C)(O)CO1)c(=O)n(C)c(=O)n2C(C)C [AZD3965],107%
11,O=c1cc(-c2ccccc2)oc2c1ccc1ccccc12 [Alpha-Naphtoflavone],98.3%

# Same assay, conditions: 10 nM; 72 h
row,SMILES,cell viability
1,CN(CCCOc1ccc(Cc2ccccc2)cc1)CCC(=O)O,103%
2,Cc1c2c(=O)n(-c3ccccc3Cl)[nH]c2cc(=O)n1Cc1ccccn1,113%
3,COc1ccc2c(NC(=O)Nc3cccc(C(F)(F)F)n3)ccnc2c1,101%
4,O=c1cc(N2CCOCC2)oc2c(-c3ccccc3)cccc12,94.1%
5,O=C1C(SCCO)=C(SCCO)C(=O)c2ccccc21,98.2%
6,Cc1nc(-c2ccccc2)sc1C(=O)Nc1ccc(S(N)(=O)=O)cc1,103%
7,Cn1cc(-c2ccncc2)c(-c2ccc(OCc3ccc4ccccc4n3)cc2)n1,101%
8,O=C(O)CC[N+](=O)[O-] [3-nitropropionic acid],96.7%
9,C=CC(=O)c1ccc(O)cc1 [4-Acryloylphenol],88.1%
10,Cc1[nH]nc(C(F)(F)F)c1Cc1sc2c(c1C(=O)N1C[C@](C)(O)CO1)c(=O)n(C)c(=O)n2C(C)C [AZD3965],104%
11,O=c1cc(-c2ccccc2)oc2c1ccc1ccccc12 [Alpha-Naphtoflavone],99.6%

# Same assay, conditions: 100 nM; 72 h
row,SMILES,cell viability
1,CN(CCCOc1ccc(Cc2ccccc2)cc1)CCC(=O)O,96.1%
2,Cc1c2c(=O)n(-c3ccccc3Cl)[nH]c2cc(=O)n1Cc1ccccn1,99.1%
3,COc1ccc2c(NC(=O)Nc3cccc(C(F)(F)F)n3)ccnc2c1,105%
4,O=c1cc(N2CCOCC2)oc2c(-c3ccccc3)cccc12,99.8%
5,O=C1C(SCCO)=C(SCCO)C(=O)c2ccccc21,106%
6,Cc1nc(-c2ccccc2)sc1C(=O)Nc1ccc(S(N)(=O)=O)cc1,97%
7,Cn1cc(-c2ccncc2)c(-c2ccc(OCc3ccc4ccccc4n3)cc2)n1,100%
8,O=C(O)CC[N+](=O)[O-] [3-nitropropionic acid],99.1%
9,C=CC(=O)c1ccc(O)cc1 [4-Acryloylphenol],102%
10,Cc1[nH]nc(C(F)(F)F)c1Cc1sc2c(c1C(=O)N1C[C@](C)(O)CO1)c(=O)n(C)c(=O)n2C(C)C [AZD3965],113%
11,O=c1cc(-c2ccccc2)oc2c1ccc1ccccc12 [Alpha-Naphtoflavone],102%

# Same assay, conditions: 1000 nM; 72 h
row,SMILES,cell viability
1,CN(CCCOc1ccc(Cc2ccccc2)cc1)CCC(=O)O,98.4%
2,Cc1c2c(=O)n(-c3ccccc3Cl)[nH]c2cc(=O)n1Cc1ccccn1,94.2%
3,COc1ccc2c(NC(=O)Nc3cccc(C(F)(F)F)n3)ccnc2c1,95.2%
4,O=c1cc(N2CCOCC2)oc2c(-c3ccccc3)cccc12,95.8%
5,O=C1C(SCCO)=C(SCCO)C(=O)c2ccccc21,10.8%
6,Cc1nc(-c2ccccc2)sc1C(=O)Nc1ccc(S(N)(=O)=O)cc1,94.7%
7,Cn1cc(-c2ccncc2)c(-c2ccc(OCc3ccc4ccccc4n3)cc2)n1,104%
8,O=C(O)CC[N+](=O)[O-] [3-nitropropionic acid],86.5%
9,C=CC(=O)c1ccc(O)cc1 [4-Acryloylphenol],99.4%
10,Cc1[nH]nc(C(F)(F)F)c1Cc1sc2c(c1C(=O)N1C[C@](C)(O)CO1)c(=O)n(C)c(=O)n2C(C)C [AZD3965],99.5%
11,O=c1cc(-c2ccccc2)oc2c1ccc1ccccc12 [Alpha-Naphtoflavone],102%

# Same assay, conditions: 10000 nM; 72 h
row,SMILES,cell viability
1,CN(CCCOc1ccc(Cc2ccccc2)cc1)CCC(=O)O,102%
2,Cc1c2c(=O)n(-c3ccccc3Cl)[nH]c2cc(=O)n1Cc1ccccn1,96.6%
3,COc1ccc2c(NC(=O)Nc3cccc(C(F)(F)F)n3)ccnc2c1,107%
4,O=c1cc(N2CCOCC2)oc2c(-c3ccccc3)cccc12,59.3%
5,O=C1C(SCCO)=C(SCCO)C(=O)c2ccccc21,-1.37%
6,Cc1nc(-c2ccccc2)sc1C(=O)Nc1ccc(S(N)(=O)=O)cc1,97.7%
7,Cn1cc(-c2ccncc2)c(-c2ccc(OCc3ccc4ccccc4n3)cc2)n1,92%
8,O=C(O)CC[N+](=O)[O-] [3-nitropropionic acid],92.2%
9,C=CC(=O)c1ccc(O)cc1 [4-Acryloylphenol],72.8%
10,Cc1[nH]nc(C(F)(F)F)c1Cc1sc2c(c1C(=O)N1C[C@](C)(O)CO1)c(=O)n(C)c(=O)n2C(C)C [AZD3965],102%
11,O=c1cc(-c2ccccc2)oc2c1ccc1ccccc12 [Alpha-Naphtoflavone],101%
